Data from ChEMBL document CHEMBL1201862, “PubChem BioAssay data set” (2004).
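Five concentrations, 48 hours, 96-well plates. The concentration for 50% growth inhibition is given as GI50.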 Activity calls are given as the source filed them. Rule as the data show it: active = GI50 up to about 1.1 µM and inactive = higher.

Columns and labels:
Assay in all cases: NCI-60 cell line screen, 48 h
OVCAR-8 = tested on: OVCAR-8
SK-MEL-2 = tested on: SK-MEL-2
RPMI-8226 = tested on: RPMI-8226
OVCAR-3 = tested on: OVCAR-3
NCI-H23 = tested on: NCI-H23
DU-145 = tested on: DU-145
SW-620 = tested on: SW-620
SK-MEL-5 = tested on: SK-MEL-5
LOX IMVI = tested on: LOX IMVI
OVCAR-4 = tested on: OVCAR-4
U-251 = tested on: U-251
MCF7 = tested on: MCF7
TK-10 = tested on: TK-10
Hs-578T = tested on: Hs-578T
EKVX = tested on: EKVX
T47D = tested on: T47D
SNB-75 = tested on: SNB-75
K562 = tested on: K562

Measured: GI50

COc1c(O)cc2c(c1O)C(=O)C1=C(CCCC1)C2=O
inactive: OVCAR-8 20.4 µM | SK-MEL-2 37.6 µM | RPMI-8226 9.53 µM | OVCAR-3 20.3 µM | NCI-H23 15.5 µM | DU-145 22.3 µM | SW-620 27.4 µM | SK-MEL-5 23.9 µM | LOX IMVI 14.7 µM | OVCAR-4 21.6 µM | U-251 21 µM | MCF7 33.9 µM | TK-10 34.3 µM | Hs-578T 21.8 µM | EKVX 22.6 µM | T47D 17.9 µM

CC1(C)[N+]([O-])=[N+]([O-])C1(C)Br (stereo not drawn)
inactive: OVCAR-8 > 100 µM | SK-MEL-2 > 100 µM | SNB-75 > 100 µM | K562 > 100 µM | OVCAR-3 > 100 µM | NCI-H23 > 100 µM | SW-620 > 100 µM | SK-MEL-5 > 100 µM | LOX IMVI > 100 µM | OVCAR-4 > 100 µM | U-251 > 100 µM | MCF7 > 100 µM | TK-10 > 100 µM | Hs-578T > 100 µM | EKVX > 100 µM

C[S+]=c1sc2ccccc2s1
inactive: OVCAR-8 > 100 µM | SK-MEL-2 > 100 µM | SNB-75 > 100 µM | RPMI-8226 > 100 µM | K562 > 100 µM | SW-620 > 100 µM | SK-MEL-5 > 100 µM | LOX IMVI > 100 µM | OVCAR-4 > 100 µM | U-251 > 100 µM | TK-10 > 100 µM

CN1C(=O)C(=Cc2ccc(Br)cc2)C(=O)N(C)C1=O
inactive: SK-MEL-2 > 100 µM | SNB-75 > 100 µM | RPMI-8226 > 100 µM | K562 5.45 µM | OVCAR-3 > 100 µM | NCI-H23 > 100 µM | DU-145 > 100 µM | SW-620 > 100 µM | SK-MEL-5 > 100 µM | LOX IMVI > 100 µM | OVCAR-4 > 100 µM | U-251 > 100 µM | MCF7 > 100 µM | TK-10 > 100 µM | EKVX > 100 µM | T47D > 100 µM

Nc1ncnc2c1ncn2C1OC(COC2C(CO)OC(OC(C(=O)O)C(O)C(OP(=O)(O)O)C(O)C(=O)O)C(O)C2O)C(O)C1O (stereo not drawn)
inactive: OVCAR-8 > 100 µM | SK-MEL-2 > 100 µM | SNB-75 > 100 µM | RPMI-8226 > 100 µM | K562 > 100 µM | OVCAR-3 > 100 µM | NCI-H23 > 100 µM | SW-620 > 100 µM | SK-MEL-5 > 100 µM | LOX IMVI > 100 µM | OVCAR-4 > 100 µM | U-251 > 100 µM | MCF7 > 100 µM | TK-10 > 100 µM | Hs-578T 14.9 µM | EKVX > 100 µM

Nc1cc(Cl)ccc1SSc1ccc(Cl)cc1N
inactive: OVCAR-8 16.6 µM | SK-MEL-2 17 µM | SNB-75 16.8 µM | RPMI-8226 3.72 µM | K562 10.4 µM | NCI-H23 5.61 µM | DU-145 15.2 µM | SW-620 3.94 µM | SK-MEL-5 14 µM | LOX IMVI 3.49 µM | OVCAR-4 13.6 µM | U-251 4.15 µM | MCF7 3.85 µM | TK-10 20.2 µM | Hs-578T 8.79 µM | EKVX 9.55 µM | T47D 5.92 µM

COc1ccc(CNC(=O)NCn2cc(-c3ccccc3)nn2)cc1
inactive: OVCAR-8 > 100 µM | SK-MEL-2 > 100 µM | SNB-75 > 100 µM | RPMI-8226 > 100 µM | K562 > 100 µM | NCI-H23 > 100 µM | DU-145 > 100 µM | SW-620 > 100 µM | SK-MEL-5 > 100 µM | LOX IMVI > 100 µM | OVCAR-4 > 100 µM | U-251 > 100 µM | MCF7 > 100 µM | TK-10 > 100 µM | EKVX > 100 µM

COC(=O)C1(C)NCCc2c1[nH]c1ccccc21 (stereo not drawn)
inactive: OVCAR-8 > 100 µM | SK-MEL-2 > 100 µM | SNB-75 16.8 µM | RPMI-8226 > 100 µM | K562 > 100 µM | OVCAR-3 > 100 µM | NCI-H23 > 100 µM | SW-620 > 100 µM | SK-MEL-5 > 100 µM | OVCAR-4 > 100 µM | U-251 > 100 µM | TK-10 > 100 µM | EKVX > 100 µM

C#CC1(O)CCC2C3CCc4cc(Oc5nc(F)nc(-c6c7ccccc7c7n6CCS7)n5)ccc4C3CC[C@@]21C (stereo partly drawn)
inactive: OVCAR-8 27.7 µM | SK-MEL-2 5.62 µM | SNB-75 12.2 µM | RPMI-8226 19.6 µM | K562 21.3 µM | OVCAR-3 17.9 µM | NCI-H23 18.7 µM | SW-620 32.6 µM | SK-MEL-5 17.4 µM | OVCAR-4 15.3 µM | U-251 17.5 µM | TK-10 27.2 µM

[C-]#[N+][C@@H]1C2[C@H](CC[C@@]1(C)O)C(=C)CC[C@@H]2[C@@]1(C)CC[C@H](Cl)C(C)(C)O1 (stereo partly drawn)
inactive: OVCAR-8 3.29 µM | SK-MEL-2 6.3 µM | SNB-75 7.87 µM | RPMI-8226 2.51 µM | K562 3.24 µM | OVCAR-3 1.31 µM | NCI-H23 4.75 µM | SW-620 5.64 µM | SK-MEL-5 3.02 µM | LOX IMVI 3.95 µM | OVCAR-4 3.24 µM | U-251 8.87 µM | TK-10 16.2 µM | EKVX 7.14 µM

Cc1cc2c(cc1Cl)S(=O)(=O)OC(c1ccc([N+](=O)[O-])cc1)=N2
inactive: OVCAR-8 > 100 µM | SNB-75 44.4 µM | RPMI-8226 > 100 µM | K562 91 µM | OVCAR-3 > 100 µM | DU-145 > 100 µM | SW-620 > 100 µM | SK-MEL-5 > 100 µM | LOX IMVI > 100 µM | OVCAR-4 > 100 µM | U-251 > 100 µM | MCF7 > 100 µM | TK-10 > 100 µM | Hs-578T > 100 µM | EKVX > 100 µM | T47D > 100 µM

CCOC(=O)c1ccc(Nc2nc3ccc(C(F)(F)F)cc3nc2-c2ccccc2)cc1
inactive: OVCAR-8 > 100 µM | SNB-75 41.3 µM | RPMI-8226 > 100 µM | K562 > 100 µM | OVCAR-3 > 100 µM | NCI-H23 > 100 µM | DU-145 > 100 µM | SW-620 > 100 µM | SK-MEL-5 > 100 µM | LOX IMVI > 100 µM | U-251 53 µM | MCF7 > 100 µM | TK-10 > 100 µM | Hs-578T 60.5 µM | EKVX > 100 µM | T47D 20.5 µM

Cc1cn(CC2=NC3CCCCC3N2)c(=O)[nH]c1=O (stereo not drawn)
inactive: OVCAR-8 > 100 µM | SK-MEL-2 > 100 µM | SNB-75 > 100 µM | RPMI-8226 > 100 µM | K562 > 100 µM | NCI-H23 > 100 µM | DU-145 > 100 µM | SW-620 > 100 µM | SK-MEL-5 > 100 µM | LOX IMVI > 100 µM | U-251 > 100 µM | MCF7 > 100 µM | TK-10 > 100 µM | Hs-578T > 100 µM | EKVX > 100 µM | T47D > 100 µM
